# Source: the pKa sets of Baltruschat and Czodrowski (2020)
# Where a SMILES comes first, the peptide text is derived from it.
# Settings: acidic group
row,SMILES,pKa
1,CN(C)c1cccc(NC=S)c1,11.8
2,C[n+]1ccc(-c2nc3ccccc3[nH]2)cc1,8.89
3,Cc1cc(C)cc(O)c1,10.1
4,CNc1nc(O)[n+]([C@@H]2C[C@@H](O)[C@H](CO)O2)cc1C,4.04
5,[NH3+]C[C@H](O)C(=O)O,2.78
6,Cc1cccc(NS(=O)(=O)c2ccccc2)c1,8.48
7,O=C1/C(=N\O)CC/C1=N\O,7.95
8,N#CC(C#N)=C(C(C#N)C#N)C(C#N)C#N,2.25
9,Cc1ccc(S(=O)(=O)NCCC(=[NH2+])N(C)C)cc1,9.84
10,CC1=CC(=O)C=C(C)C1=NO,8.04
11,Cc1ccc(N[N+](=O)[O-])cc1,4.88
12,O=C(O)C[C@]1(O)C[C@H]2C=C[C@@H]1C2,4.36
13,OCC(S)C[S-] (centres undefined),10.6
14,Brc1ccccc1-c1nnn[nH]1,3.83
15,CC(=O)C(C=O)C(C)=O,4.6
16,Oc1ccc(/N=N/c2ccncc2)cc1,7.73
17,[O-][n+]1ccc(O)cc1,5.76
18,CN(C)/C=N/c1cccc(O)c1,10.2
19,NS(=O)(=O)c1cccc(Cl)c1,9.04
20,CC(=O)CC(=O)C(F)(F)F,6.09
21,Cc1c([N+](=O)[O-])cc(Cl)c2nnn(O)c12,3.17
22,CC1(C)NC(C)(C)[N+](O)=C1c1ccccc1,2.06
23,CCOC(=O)C(Cc1cccc(C)c1)C(C)=O (centres undefined),11.9
24,CC(=O)NO,9.07
25,O=C(O)Cc1ccccc1,4.27
26,O=S(=O)(Nc1nccs1)c1ccccc1,5.73

row,SMILES,pKa
1,CCCOC(=S)NC(C)=O,9.34
2,CC(=O)Sc1ccc(O)cc1,8.88
3,Oc1cc(-c2ccccc2)nn1-c1ccccc1,12.2
4,O=C1[N-]C(=O)/C(=N/O)C(=O)N1,10.1
5,CC(=O)c1ccc(NS(=O)(=O)c2ccccc2)cc1,6.94
6,CC(C)(S)[C@@H](C(=O)[O-])n1ccnc1Cc1ccccc1,10.3
7,O=C1CCC(=O)C1,4.5
8,Oc1ccc(Cl)cc1C[NH+]1CCCCC1,8.14
9,Oc1cnoc1,7.75
10,O=[N+]([O-])c1cccc(NC=S)c1,10.3
11,O=c1cc(-c2ccc(O)cc2)ss1,8.27
12,Oc1ccc(Cl)cc1C[NH+]1CCCC1,8.3
13,COc1ccc(O)cc1Br,9.09
14,COc1ccc(CC(C(C)=O)C(C)=O)cc1,10.6
15,CC(C)C[C@H]([NH3+])C(=O)O,2.54
16,N#CC1C=CN(Cc2cccc(F)c2)C=C1C(N)=O (centres undefined),0.68
17,O=C(O)C(=O)C(c1ccccc1)c1ccccc1,2.78
18,NC(=O)C(N)=S,11.5
19,C/C(=C\C=C\C(C)C(=O)O)[C@H]1C[NH2+][C@H](C(=O)[O-])[C@H]1CC(=O)O (some centres undefined),3.72
20,CCOC(=O)CC(C)=O,10.7
21,Cc1c(-c2ccccc2)nn(-c2ccccc2)c1O,7.8
22,OCc1nc2cc(Cl)ccc2[nH]1,11.5
23,NC(=O)c1ccncc1,10.5
24,[NH3+]CCCCCCCC(=O)O,4.5
25,O=S1(=O)C=C(O)c2ccccc21,7.65
26,S=C(Nc1ccc(Cl)c(Cl)c1)c1cccc(Br)c1,9.26

row,SMILES,pKa
1,O=C([O-])[C@H]1O[C@@H]1C(=O)O,3.25
2,Cc1ccc2ccc(O)cc2c1,9.52
3,CC(=O)c1ccccc1C(=O)O,4.15
4,CC(=O)NS(=O)(=O)c1ccsc1C(=O)O,3.1
5,Oc1cccc2cc3ccccc3cc12,9.88
6,O=[N+]([O-])c1cccc(O)c1,8.31
7,O=C1CCc2cc([N+](=O)[O-])ccc2C1,10.1
8,O=C1CSc2ncnc(N3CCOCC3)c2N1,10.4
9,C/C(=C/Cl)C(=O)O,3.05
10,CSC1=NC(C)(C)C(O)=N1,9.48
11,c1nc2cc3c(cc2[nH]1)CCCC3,13.3
12,CCc1cc2c(C)cc(=O)oc2cc1O,8.01
13,Oc1ccc2ccccc2[nH+]1,0.31
14,COc1cc2c(O)cc(C)[nH+]c2c2c(C)c(C)oc12,2.91
15,O=C(O)c1cc(O)c(O)c(C(=O)O)[o+]1,0.6
16,C[N+](C)(C)O,4.65
17,Cc1cc(Cc2cc([N+](=O)[O-])ccc2O)cc(C)c1O,7.12
18,Cc1ccc(CCC(=O)O)cc1,4.74
19,Oc1ccc(-c2ccc(O)cc2)cc1,9.4
20,Cc1ccccc1C[N+](=O)[O-],7.6
21,OCc1cccc(CO)c1O,9.66
22,O=C(O)[C@@H](P)CC[C@H](P)C(=O)O,3.62
23,O=c1nc([O-])c2ncn([C@H]3O[C@@H](CO)[C@H](O)[C@@H]3O)c2[nH]1,13
24,C[n+]1cccc(O)c1,4.96
25,CC(=O)/C(=N/O)c1ccccc1,8.85

# Same assay, conditions: basic group
row,SMILES,pKa
1,C[n+]1ccc(-c2nc3ccccc3[nH]2)cc1,2.26
2,CCCSS/C(CCO)=C(/C)N(C=O)Cc1cnc(C)nc1N,5.52
3,C=CCN(CC=C)CCC[NH+](CC=C)CC=C,6.96
4,Cc1ccc(N(C)C)cc1,5.56
5,CCOCCNc1cccc(OC)c1,3.67
6,O=[N+]([O-])c1ccc2cccnc2c1O,1.94
7,Cc1ccc2cccc(C)c2n1,4.1
8,CC(C)c1nc2ccccc2[nH]1,6.23
9,Cc1ncc[nH+]c1C,-4.17
10,O=[N+]([O-])c1cccc2[nH]ncc12,0.42
11,NCC(=O)CN,8.32
12,CSc1cccnc1,4.45
13,Oc1ccc(/N=N/c2ccncc2)cc1,4.65
14,CC(=O)Nc1ccccn1,4.09
15,Cc1cc(C)[nH+]c([S-])n1,2.8
16,Nc1ccc([N+](=O)[O-])c(F)c1,-0.3
17,COc1cccc(C(=O)CCN2CCOCC2)c1,7.1
18,COc1cccc2ccc(C)nc12,5.69
19,Nc1cccc2nc3ccccc3c(N)c12,11
20,CN(C)/C=N/c1cccc(O)c1,7.88
21,CCCCCCCCCCCCCCN(CC(C)O)CC(C)O (centres undefined),8.4
22,c1ccc2c(c1)N1CCN2CC1,5.65
23,ClCC1CC2CCN1CC2 (centres undefined),9.68
24,Cc1ccc(N)nc1,7.22
25,C=CCNCC=C,9.35

row,SMILES,pKa
1,NC1=N[C@H]2C[C@@H](N1)N[C@@H]2C(=O)[O-],12.6
2,C[C@@H]1N[C@H](CCCCCCCC(=O)[O-])CC[C@@H]1O,10.4
3,CN[C@@H]1C[C@@H]1[NH2+]C,3.56
4,C[NH+]1CCCC1c1cncc2[nH]c3ccccc3c12 (centres undefined),5.17
5,Cc1nc(N)c2cnn(-c3ccccc3)c2n1,4.52
6,[NH3+]Cc1ccncc1,4.05
7,c1nc[nH]n1,2.5
8,Cc1n[nH]c2c(Nc3ccccc3)ncnc12,4.61
9,CC(C)C[C@H](N)C(=O)N[C@@H](Cc1c[nH]cn1)C(=O)[O-] (H-Leu-His-OH),7.78
10,CC(C)[C@@H]1CC[C@@H](C)C[C@@H]1N,10.5
11,O=Cc1cccnc1,3.73
12,Cc1ccc(-c2ncc(-c3ccc(Br)cc3)o2)cc1,0.87
13,Cn1c(N)nc(=O)c2[nH]cnc21,4.61
14,Cc1ccnc(/N=C/c2ccc([N+](=O)[O-])cc2)n1,3.66
15,CC12CN3CC(C)(C1)CC(C)(C3)C2,10.7
16,CCCCCCn1ccnc1,7.2
17,CCN(CC)CC(=O)Nc1cc(C)ccc1C,7.92
18,Cc1cc(-c2cccc[nH+]2)nn1C,-1.6
19,C#CCCCN(C)C,8.88
20,CC(C)(S)[C@@H](C(=O)[O-])n1ccnc1Cc1ccccc1,6.98
21,CN(C)Cc1cc(Cl)ccc1[O-],11
22,CC(O)[C@@H]1CN[C@H](C(=O)[O-])[C@H]1CC(=O)[O-] (some centres undefined),10.1
23,N/C(=N\O)C(N)c1ccccc1 (centres undefined),7.15
24,Brc1ccc2nc3c(c(N4CCOCC4)c2c1)CCC3,6.38
25,C1CCN(CCCN2CCCCC2)CC1,10.1

row,SMILES,pKa
1,CN(C)CCCCCCNC(=O)/C=N/[O-],10.4
2,CCOCCn1c(N2CCC[NH+](CCCCn3cc(C(=O)[O-])cn3)CC2)nc2ccccc21,5.1
3,NOCc1ccccc1,4.34
4,OCc1nc2cc(Cl)ccc2[nH]1,4.63
5,NC(=O)c1ccncc1,3.57
6,CCNCC[Se-],10.9
7,N[C@H]1CC(=O)N(CCCC[C@H]([NH3+])C(=O)[O-])C1=O,6
8,Nc1cc([N+](=O)[O-])c2ccccc2c1,2.62
9,COc1ccc(S(=O)(=O)CCN2CCOCC2)c(OC)c1OC,4.89
10,Cc1ccc(N)c(C)c1,4.75
11,CC(C)C(=O)C(C)(C)CN(C)C,9.3
12,[O-]c1ccncc1Br,9.4
13,COc1cccc(C(=N)c2ccccc2)c1,6.59
14,CC(O)C[NH+](CCCN1CCOCC1)CC(C)O (centres undefined),5.5
15,CN(C)C(C)(C)C=O,8.4
16,O[C@H]1[C@H](O)[C@@H](n2cnc3ccccc32)OC[C@@H]1O,3.92
17,Cc1cc(C)n(-c2ccccn2)n1,1.89
18,C[N-]C(=O)Oc1ccc2c(c1)[C@@]1(C)CCN(C)[C@H]1N2C,12.2
19,Nc1ccc(N)cc1,6.16
20,COc1ccc2nc3ccccc3cc2c1,3.82
21,CC[NH+](CC)CCC(C)Nc1c2ccc(Cl)cc2nc2ccc(OC)cc12 (centres undefined),7.2
22,[O-]c1ccc(O)c2ccccc12,11
23,Cc1ncc(CO)c(CN)c1[O-],10.3
24,O=C1CSc2ncnc(N3CCOCC3)c2N1,2.07
25,c1nc2cc3c(cc2[nH]1)CCCC3,5.98

row,SMILES,pKa
1,CCCCCCCCN,10.8
2,Cc1ccc(N(C)CO)cc1,3.73
3,COc1cc(S(C)=O)ccc1-c1nc2ncc(N)cc2[nH]1 (centres undefined),3.9
4,NC1(C(=O)[O-])CCCC1,10.1
5,Cc1ccc2c(c1)CC(=O)CC2,12.9
6,CCCCCNc1ccccc1,5.2
7,Cc1ccccc1/C=C/c1ccc(N(C)C)cc1,4.59
8,C#CCNN,5.46
9,COc1cccnc1C=O,3.89
10,CCc1cnc(C(=O)[O-])cc1CC,6.58
11,CC(C)N(C)C,10.3
12,Clc1nc2cc3c(cc2[nH]1)CCCC3,2.68
13,NCC[n+]1cc(Br)c2ccccc2c1,6.71
14,Nc1ccc([NH3+])cc1,2.86
15,CCOCCn1c(CN2CC[NH+](CCCCn3cc(C(=O)O)cn3)CC2)nc2ccccc21,4.9
16,C1CNC1,11.3
17,Nc1ccc2ccncc2c1,6.2
18,CCC(C)NCC(C)C (centres undefined),10.8
19,CN(C)[C@H]1CC[C@@H](C)CC1,10.5
20,CNC(=S)c1ccccc1,-2.5
21,C=C(C)[C@H]1CN[C@H](C(=O)[O-])[C@H]1CC(=O)OC,9.52
22,CC(CC[NH+](C)C)NN (centres undefined),5.9
